Read-outs that look alike come from different tables or passages of the source.
Legend:
K18PL tau [1] = target: T1, K18PL tau (Homo sapiens, UniProt P10636, P618L); assay: K18PL tau centrifugation (sedimentation) assay, SDS-PAGE densitometry; assay type: biochemical; conditions: for Emax: SDS-PAGE of soluble and insoluble fractions after centrifugation, read-out: K18PL Sed. Assay, maximal percent inhibition of K18PL fibrillization
T1 construct: (K18PL; amino acids 244-369); made in house
Outline: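 Heparin-induced fibrillization of K18PL tau in sodium acetate buffer with test compound; mixtures were centrifuged and soluble versus insoluble K18PL quantified by SDS-PAGE densitometry. A repeat run centrifuged DMSO- and compound-treated mixtures for 30 min at time zero to remove pelletable material before incubation.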

K18PL tau [2] = target: T1, K18PL tau; assay: Heparin-induced K18PL tau fibrillization assay monitored by ThT fluorescence; assay type: biochemical; conditions: for Emax: read-out: K18PL (ThT) maximal percent inhibition achieved in the assay
Outline: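 K18PL (30 μM stock, with 0.24 μM Alexa Red-labeled K18PL) plus 40 μM heparin and compound, fibrillized 6 h at 37 °C. Fibrils read by ThT (12.5 μM final, in 100 mM glycine pH 8.5, 1 h RT), ex 450/em 510 nm. Percent inhibition scaled between DMSO wells and non-fibrillizing K18 KD control wells.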

[3] = Turbidimetric solubility in fibrillization buffer; assay type: physicochemical; conditions: 100 mM NaOAc pH 7.0 fibrillization buffer, 1% DMSO
Experimental: Compounds were serially diluted in DMSO to achieve a 2.5 fold dilution series from 20 mM down 8 points to […] on a 384-well master plate (Costar 3672). Aliquots (2 μL) were transferred to a clear 96-well assay plate (Fisher 12-565-501) containing 198 μL fibrillization buffer (100 mM NaOAc pH 7.0) for a 100-fold dilution (200 μM down to 0.3 μM). The plate was incubated with agitation for 2.5 h, and the absorbance at 550, 600, 650 and 700 nm was measured on a Spectramax M5 spectrophotometer. DMSO (1%) in fibrillization buffer served as a control that was subtracted from each data point. The absorbances were averaged and the concentration at which the average absorbance rose above 0.03 AU was an indication of insoluble compound, with solubility limits reported as the previous concentration in the dilution series.

full-length tau (tau40) = target: T2, full-length tau (tau40) (Homo sapiens, UniProt P10636); assay: Tau40 fibrillization sedimentation assay; assay type: biochemical; conditions: SDS-PAGE of soluble and insoluble fractions after centrifugation; for Emax: read-out: Tau40 Sed. Assay, maximal percent inhibition of tau40 fibrillization
T2 construct: Full length tau (Tau40; amino acids 1-441); made in house
Experimental: The determination of compound-induced effects on the amount of tau that remains soluble upon centrifugation, and EM visualization of tau species following incubation with test compounds, were as previously described (Crowe, A., Ballatore, C., Hyde, E., Trojanowski, J. Q., and Lee, V. M. Y. (2007) Biochemical and Biophysical Research Communications 358, 1-6). […]

[4] = Table 5, read-out: K18PL (ThT) IC50 value

T1 sequence (P10636 561-686 P618L): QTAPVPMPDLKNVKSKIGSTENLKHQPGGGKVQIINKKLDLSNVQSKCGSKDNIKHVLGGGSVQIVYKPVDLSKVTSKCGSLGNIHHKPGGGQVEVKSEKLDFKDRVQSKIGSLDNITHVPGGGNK
T2 sequence (P10636 1-441 isoform P10636-8): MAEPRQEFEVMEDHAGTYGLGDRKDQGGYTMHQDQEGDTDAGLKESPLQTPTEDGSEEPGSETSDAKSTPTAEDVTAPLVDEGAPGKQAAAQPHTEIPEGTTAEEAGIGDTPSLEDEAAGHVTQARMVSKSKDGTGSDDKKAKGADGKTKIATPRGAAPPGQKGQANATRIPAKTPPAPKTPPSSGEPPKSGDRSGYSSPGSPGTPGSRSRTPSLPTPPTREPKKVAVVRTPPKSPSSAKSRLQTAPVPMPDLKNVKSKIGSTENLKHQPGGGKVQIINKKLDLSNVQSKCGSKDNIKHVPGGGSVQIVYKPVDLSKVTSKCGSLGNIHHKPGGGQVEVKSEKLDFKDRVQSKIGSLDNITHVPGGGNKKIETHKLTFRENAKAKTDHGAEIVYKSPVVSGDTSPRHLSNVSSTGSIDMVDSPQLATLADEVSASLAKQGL

`Nc1scc2c(C(=O)NC3CC3)nn(-c3ccc(Cl)cc3)c(=O)c12` [CNDR-51362, 5-Amino-3-(4-chlorophenyl)-N-cyclopropyl-4-oxo-3,4-dihydrothieno[3,4-d]pyridazine-1-carboxamide] showed an Emax (K18PL tau [1]) of 69%, an IC50 (K18PL tau [2]; [4]) of 4.6 µM and an Emax (K18PL tau [2]; Table 5) of 87%. For the same compound, the “Water Solubility” value [3] was 32 µM, the “Tau40 Sed. Assay, maximal percent inhibition of tau40 fibrillization” value (full-length tau (tau40)) was 58% and the Emax (full-length tau (tau40)) was 50 to 60%.

For `CCOC(=O)c1nn(-c2ccc(Cl)cc2)c(=O)c2c(N)scc12` [Compound 17, Ethyl 5-amino-3-(4-chlorophenyl)-4-oxo-3,4-dihydrothieno[3,4-d]pyridazine-1-carboxylate], the Emax (K18PL tau [1]) was 70%, the “Tau Cent. Assay % Soluble” value (K18PL tau [1]; Table 3, K18PL tau centrifugation assay) was 62% and the inhibition at 80 µM (K18PL tau [2]; Table 3, highest tested concentration (80 μM), read-out: Tau ThT Assay % Inhib.) was 84%. For the same compound, the IC50 (K18PL tau [2]; Table 3, logarithm of IC50, K18PL tau ThT fluorescence inhibition, NC = not calculated due to insufficient activity, read-out: Tau ThT Assay Log IC50 (converted)) was 3.98 µM, the IC50 (K18PL tau [2]; [4]) was 3.1 µM and the Emax (K18PL tau [2]; Table 5) was 71%. For the same compound, the “Water Solubility” value [3] was 13 µM, the “Tau40 Sed. Assay, maximal percent inhibition of tau40 fibrillization” value (full-length tau (tau40)) was 48% and the Emax (full-length tau (tau40)) was 50 to 60%.
